Test results as given in patent US20140296146A1, “Thermostable Inhibitors of Activation of the Blood Clotting System Through Contact with Foreign Surfaces” (Synapse B.V., priority 2011, published 2014).
pKi: −log10 of the molar value. Where a SMILES comes first, the peptide text is derived from it. Bridges are numbered along the chain shown (N, C = ends).

Key:
[1] = molecular target: T1, h-FXIIa (Homo sapiens, UniProt P00748); assay: Effect of inhibitors on hydrolysis of S2302 by h-FXIIa; format: biochemical
T1 construct: purchased Enzyme Research Laboratories FXIIa 1212A
T1 sequence (P00748 373-615 limits assumed): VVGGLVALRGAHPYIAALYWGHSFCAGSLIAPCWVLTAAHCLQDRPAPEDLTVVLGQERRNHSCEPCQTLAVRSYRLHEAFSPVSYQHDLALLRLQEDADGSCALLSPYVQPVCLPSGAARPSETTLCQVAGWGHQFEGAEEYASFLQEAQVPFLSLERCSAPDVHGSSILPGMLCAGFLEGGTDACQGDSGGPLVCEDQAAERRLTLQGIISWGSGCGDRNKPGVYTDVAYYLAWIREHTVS
T1 sequence (P00748 20-372 partner limits assumed): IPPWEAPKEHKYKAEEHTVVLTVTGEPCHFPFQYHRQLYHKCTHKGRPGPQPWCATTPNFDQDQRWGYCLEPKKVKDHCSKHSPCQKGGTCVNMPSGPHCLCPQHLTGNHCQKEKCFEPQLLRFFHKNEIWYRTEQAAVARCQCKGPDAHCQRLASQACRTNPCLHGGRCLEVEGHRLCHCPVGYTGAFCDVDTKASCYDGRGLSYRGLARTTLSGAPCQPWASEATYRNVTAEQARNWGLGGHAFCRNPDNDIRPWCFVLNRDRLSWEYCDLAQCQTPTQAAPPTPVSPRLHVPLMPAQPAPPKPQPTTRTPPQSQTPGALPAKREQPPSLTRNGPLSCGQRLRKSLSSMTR
Protocol: (§1) Materials • S2302 From Chromogenic, lot # N0398718 SEQ0860, exp. date 2012-07. Water added on 7 Oct. […] On 3 Aug. […] Product code FXIIa 1212A, lot #FXIIa 2520PL. Bottle with 0.5 mg was reconstituted with 370 μl pure water. […] Buffer 4 mM NaAc, 150 mM NaCl (pH 5.3). Preparation was divided into 20 μl amounts and frozen at −80° C. • Hepes735 140 mM NaCl, 20 mM Hepes, 0.02% NaN3 (pH 7.35). • BSA5 Hepes735+5 mg/ml BSA. • CTI Prepared on 17 Dec. 2004, 0.141 mg/ml, i.e. 0.141/12028=11.7*10^−6 M (11.7 μM). One portion was thawed and divided into 3 parts. Part 1 was frozen at −80° C.; part 2 was kept at RT; and part 3 was incubated 30 min at 95° C. and then kept at RT.
(§2) Stock FXIIa was diluted 700× in BSA5. The inhibitor was diluted in BSA5 as indicated. Wells contained 70 μl diluted FXIIa (5 nM final), 70 μl inhibitor and 20 μl S2302 (475 or 462.5 μM final). The reaction was started after 5 min heating on the heating plate with S2302. Filters 405 nm and 490 nm reference. Found mΔA/min was multiplied by 2.14 to get the figure for a 1 cm path.
The residual activity (V) was fitted against the PTI concentration with equation:
(§3) V=(E+(sqrt(Ê2+2*E*(Ki−I)+Î2+2*I*Ki+Kî2)−E−I−Ki)/2)*kcat*S/(Km+S)
(§4) in which E=[FXIIa], Ki is the dissociation constant, I=[Inhibitor], kcat and Km are Michaelis constants and S=[S2302].

[2] = molecular target: T1, h-FXIIa; assay: Stability of CTI, PTI and TICA at RT and at 95° C., read as inhibition of h-FXIIa; format: physicochemical
Protocol: as §1, with “Part 1 was frozen at −80° C.; part 2 was kept at RT; and part 3 was incubated 30 min at 95° C. and then kept at RT.” left out
as §2, with “ΔmA/min” for “mΔA/min”
The residual activity (V) was fitted against the inhibitor concentration with equation:
as §3, §4
To calculate the concentration of I the equation I=x·(x−E−Ki)/(x−E) was used. In this equation is I the calculated inhibitor concentration, x=the residual activity of FXIIa (free FXIIa), E the total FXIIa concentration (=9.33 nM), and Ki the dissociation or inhibitor constant.

[3] = system: contact activation; assay: Thrombin generation (CAT) in platelet poor plasma contact activated with kaolin; format: biochemical, human; settings: concentration that prolongs clotting time of kaolin contact activated plasma four times
Protocol: Thrombin generation was carried out according to WO2003/093831.
Following a double centrifugation at 2500×g for 15 min at room temperature, platelet poor plasma (PPP) was collected from the upper half volume of plasma supernatant, quick frozen and stored at −80° C. The absence of platelet and leucocyte in PPP was checked with an ADVIA 120 counter (Bayer Diagnostics, NY, USA).
Recombinant human tissue factor Innovin® was obtained from Dade Behring (Marburg, Germany) and used at a final concentration of 0.5 pM in PRP and 1 or 5 pM in PPP samples. The phospholipid vesicles used at a final concentration of […] were obtained from Avanti Polar Lipids (Alabaster, Ala., USA) and consisted of 20 mol % phosphatidylserine (PS), 20 mol % phosphatidylethanolamine (PE) and 60 mol % phosphatidylcholine (PC) and were prepared by extrusion method (9,10). Kaolin light (hydrated aluminium silicate) was obtained from Baker Harrison ltd, (Ilford, UK).
Hepes-buffered saline contained 20 mM Hepes (Sigma Aldrich, l'Ile d'Abeau Chesnes, France), 140 mM NaCl and 5 mg/mL bovine serum albumin (BSA) (Euromedex, Souffelweyersheim, France), pH 7.35. This buffer was stored at −20° C. until use. A fresh mixture of fluorogenic substrate and CaCl2 was prepared before each experiment. Fluorogenic substrate, Z-Gly-Gly-Arg-AMC, was obtained from Bachem (Bubendorf, Switzerland). The mixture of fluorogenic substrate 2.5 mM and CaCl2 0.1 M was prepared using buffer containing Hepes 20 mM and 60 mg/mL BSA, pH 7.35. The Calibrator with the activity of 600 nM human thrombin was obtained from Thrombinoscope BV (Maastricht, The Netherlands). Transparent, round bottom Greiner microtiter plates (Greiner ref 65204, Poitiers, France) were used.
Thrombin generation was measured using Calibrated Automated Thrombography (CAT) according to the methodology of WO2003/093831 and a 96-well plate fluorometer (Fluoroscan Ascent Reader, Thermolab systems OY, Helsinki, Finland) equipped with a 390/460 nm filter set. Briefly, 80 μL of plasma is dispensed into the wells of round-bottom 96 well-microtiter plates. 20 μL of a mixture containing tissue factor and phospholipids is added to the PPP sample; alternatively, in order to obtain contact activation, the citrated plasma is preincubated for at least 10 min with 1 mg/ml of Kaolin light. The starting reagent (20 μL per well) contains fluorogenic substrate and CaCl2. […] The most important parameters that can be derived from CAT are lag time, endogenous thrombin potential corresponding to the area under the CAT curve, peak height of thrombin and time to peak.

[4] = Ki, Table 2, inhibitory activity of different polypeptides
[5] = ki F.XIIa (ng/ml), Before heating

Row | Compound | pKi [1, 4] | pKi [1, 5] | Res. Act. (%) ([2]; inhibitor 30 min 95° C.) | Res. Act. (%) ([2]; inhibitor at RT during 72 hrs) | Res. Act. (%) ([2]; inhibitor kept at −80° C.) | Ki ([1]; ki F.XIIa (nM), Before heating) [nM] | 4 × lag-time (ng/ml) ([3]; After heating) [ng/mL] | 4 × lag-time (μM) ([3]; After heating) [µM] | 4 × lag-time (ng/ml) ([3]; Before heating) [ng/mL] | 4 × lag-time (μM) ([3]; Before heating) [µM]
1 | CC[C@H](C)[C@@H]1NC(=O)[C@@H]2CSSC[C@H](NC(=O)[C@@H](NC(=O)[C@H](CCCNC(=N)N)NC(=O)[C@H](CCC(=O)O)NC(=O)[C@H](CCC(=O)O)NC(=O)[C@@H](N)Cc3c[nH]cn3)C(C)C)C(=O)N3CCC[C@H]3C(=O)N[C@@H](CCCCN)C(=O)N[C@@H]([C@@H](C)CC)C(=O)N[C@@H](CC(C)C)C(=O)N[C@@H](CCSC)C(=O)N[C@@H](CCC(=O)O)C(=O)N[C@H]3CSSC[C@H](NC1=O)C(=O)N[C@@H](CC(C)C)C(=O)N[C@@H](CCC(=O)O)C(=O)N[C@@H](Cc1c[nH]cn1)C(=O)NCC(=O)N[C@@H](Cc1ccc(O)cc1)C(=O)N[C@H](C(=O)NCC(=O)O)CSSC[C@H](NC(=O)[C@H](CC(=O)O)NC(=O)[C@H](CO)NC(=O)[C@H](CC(=O)O)NC(=O)[C@H](CCCCN)NC(=O)[C@H](CCCCN)NC3=O)C(=O)N[C@@H](CC(C)C)C(=O)N[C@@H](C)C(=O)N[C@@H](CCC(=O)O)C(=O)N2 [TICA5] (H-HEERVCPKILMECKKDSDCLAECICLEHGYCG-OH; disulfide 6-23, 13-25, 19-31 (inferred); N-terminus and C-terminus assumed) | 3.77 | 3.82 | 105 | 96 | 100 | – | – | – | – | –
2 | CC[C@H](C)[C@@H]1NC(=O)[C@@H]2CSSC[C@H](NC(=O)[C@@H](NC(=O)[C@@H](N)CCCNC(=N)N)C(C)C)C(=O)N3CCC[C@H]3C(=O)N[C@@H](CCCCN)C(=O)N[C@@H]([C@@H](C)CC)C(=O)N[C@@H](CC(C)C)C(=O)N[C@@H](CCSC)C(=O)N[C@@H](CCC(=O)O)C(=O)N[C@H]3CSSC[C@H](NC1=O)C(=O)N[C@@H](CC(C)C)C(=O)N[C@@H](CCC(=O)O)C(=O)N[C@@H](Cc1c[nH]cn1)C(=O)NCC(=O)N[C@@H](Cc1ccc(O)cc1)C(=O)N[C@H](C(=O)NCC(=O)O)CSSC[C@H](NC(=O)[C@H](CC(=O)O)NC(=O)[C@H](CO)NC(=O)[C@H](CC(=O)O)NC(=O)[C@H](CCCCN)NC(=O)[C@H](CCCCN)NC3=O)C(=O)N[C@@H](CC(C)C)C(=O)N[C@@H](C)C(=O)N[C@@H](CCC(=O)O)C(=O)N2 [TICA4] (H-RVCPKILMECKKDSDCLAECICLEHGYCG-OH; disulfide 3-20, 10-22, 16-28 (inferred); N-terminus and C-terminus assumed) | – | 5.85 | 94 | 98 | 100 | 1420 | 102.9 | 31.4 | 102.7 | 31.6
3 | CC[C@H](C)[C@@H]1NC(=O)[C@H](CCCNC(=N)N)NC(=O)[C@@H]2CCCN2C(=O)[C@@H](NC(=O)[C@@H](NC(=O)[C@H](CCCNC(=N)N)NC(=O)[C@H](CCC(=O)O)NC(=O)[C@H](CCC(=O)O)NC(=O)[C@@H](N)Cc2c[nH]cn2)C(C)C)CSSC[C@@H]2NC(=O)[C@H](CCC(=O)O)NC(=O)[C@H](C)NC(=O)[C@H](CC(C)C)NC(=O)[C@@H]3CSSC[C@@H](C(=O)NCC(=O)O)NC(=O)[C@H](Cc4ccc(O)cc4)NC(=O)CNC(=O)[C@H](Cc4c[nH]cn4)NC(=O)[C@H](CCC(=O)O)NC(=O)[C@H](CC(C)C)NC(=O)[C@H](CSSC[C@H](NC(=O)[C@H](CCCCN)NC(=O)[C@H](CCSC)NC(=O)[C@H](CC(C)C)NC1=O)C(=O)N[C@@H](CCCCN)C(=O)N[C@@H](CCCCN)C(=O)N[C@@H](CC(=O)O)C(=O)N[C@@H](CO)C(=O)N[C@@H](CC(=O)O)C(=O)N3)NC(=O)[C@H](C(C)C)NC2=O [TICA3] (H-HEERVCPRILMKCKKDSDCLAECVCLEHGYCG-OH; disulfide 6-23, 13-25, 19-31 (inferred); N-terminus and C-terminus assumed) | 5.51 | 5.56 | 103 | 101 | 100 | – | – | – | – | –
